# Columns and labels:
# Tyrosinase [1] = biological target: T1, Tyrosinase (Homo sapiens, UniProt P14679); assay type: subcellular, MNT-1, Lysates
# T1 sequence (P14679 whole entry): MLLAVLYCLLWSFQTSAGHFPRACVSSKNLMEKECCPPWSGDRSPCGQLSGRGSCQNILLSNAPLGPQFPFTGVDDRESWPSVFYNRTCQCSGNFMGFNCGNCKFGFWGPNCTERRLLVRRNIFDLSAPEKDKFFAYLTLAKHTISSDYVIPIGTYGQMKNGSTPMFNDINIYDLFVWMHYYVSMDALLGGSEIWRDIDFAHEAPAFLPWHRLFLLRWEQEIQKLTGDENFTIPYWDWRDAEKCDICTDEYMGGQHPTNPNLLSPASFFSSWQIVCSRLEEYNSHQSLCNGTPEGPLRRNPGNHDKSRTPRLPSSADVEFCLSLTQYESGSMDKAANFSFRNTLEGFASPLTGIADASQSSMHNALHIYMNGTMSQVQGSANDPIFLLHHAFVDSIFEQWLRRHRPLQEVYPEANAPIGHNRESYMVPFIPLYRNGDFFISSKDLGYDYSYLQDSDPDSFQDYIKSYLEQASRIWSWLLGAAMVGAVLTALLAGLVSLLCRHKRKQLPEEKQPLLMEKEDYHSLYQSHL
# Tyrosinase [2] = biological target: T1, Tyrosinase; assay type: cell-based, MNT-1
# Description: Inhibition of tyrosinase in human MNT-1 cells assessed as inhibition of melanin production measured after 96 hrs
# Tyrosinase [3] = biological target: T1, Tyrosinase
# Description: Competitive inhibition of human recombinant tyrosinase expressed in Sf9 cells using L-DOPA as substrate by Michelis-Menten based analysis
# Tyrosinase [4] = biological target: T2, Tyrosinase (Streptomyces antibioticus, UniProt P07524)
# T2 sequence (P07524 whole entry): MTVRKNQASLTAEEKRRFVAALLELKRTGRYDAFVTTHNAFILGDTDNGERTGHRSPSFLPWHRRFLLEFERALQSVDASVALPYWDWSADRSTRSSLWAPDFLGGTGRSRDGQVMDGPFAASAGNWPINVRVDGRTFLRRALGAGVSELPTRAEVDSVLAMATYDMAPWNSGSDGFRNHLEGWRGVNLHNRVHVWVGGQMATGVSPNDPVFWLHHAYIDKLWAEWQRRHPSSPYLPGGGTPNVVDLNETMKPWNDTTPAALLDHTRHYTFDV
# Description: Competitive inhibition of Streptomyces antibioticus tyrosinase using L-DOPA as substrate by Michelis-Menten based analysis
# Mushroom tyrosinase = Mushroom tyrosinase (Agaricus bisporus, UniProt O42713+Q00024+C7FF04+C7FF05)
# Description: Competitive inhibition of Agaricus bisporus tyrosinase using L-DOPA as substrate by Michelis-Menten based analysis
# Tyrosinase [5] = biological target: T3, Tyrosinase (Mus musculus, UniProt P11344)
# T3 sequence (P11344 whole entry): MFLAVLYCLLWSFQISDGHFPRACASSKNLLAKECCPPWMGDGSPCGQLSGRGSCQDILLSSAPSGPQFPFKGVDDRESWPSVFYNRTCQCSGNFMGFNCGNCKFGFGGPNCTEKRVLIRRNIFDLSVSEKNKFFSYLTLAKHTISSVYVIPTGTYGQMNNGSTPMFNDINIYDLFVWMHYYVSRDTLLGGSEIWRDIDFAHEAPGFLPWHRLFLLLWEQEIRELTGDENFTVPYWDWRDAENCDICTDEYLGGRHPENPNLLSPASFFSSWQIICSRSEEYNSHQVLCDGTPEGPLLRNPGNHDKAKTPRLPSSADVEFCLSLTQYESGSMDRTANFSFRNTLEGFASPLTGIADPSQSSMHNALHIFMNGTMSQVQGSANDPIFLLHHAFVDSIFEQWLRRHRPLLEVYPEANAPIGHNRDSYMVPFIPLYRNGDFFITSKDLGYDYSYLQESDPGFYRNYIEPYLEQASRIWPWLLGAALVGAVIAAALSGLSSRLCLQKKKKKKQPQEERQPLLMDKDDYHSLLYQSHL
# Description: Inhibition of tyrosinase in mouse B16-F10 cells assessed as inhibition of melanin production measured after 72 hrs
Compound,IC50 (Tyrosinase [1]) [µM],IC50 (Tyrosinase [2]) [µM],Ki (Tyrosinase [3]) [µM],Ki (Tyrosinase [4]) [µM],Ki (Mushroom tyrosinase) [µM],IC50 (Tyrosinase [5]) [µM]
Cl.N[C@H](Cc1ccc(=O)n(O)c1)C(=O)O,277,> 400,76,16,12.8,
O=c1ccc(CO)cn1O,,,7.5,4.1,1.2,61.2
Cl.N[C@@H](Cc1ccc(=O)n(O)c1)C(=O)O,73.6,> 400,8,39,12.5,
Cl.NC(Cc1ccc(=O)n(O)c1)C(=O)O (racemic),90,> 400,6,42,1.2,10
